Experimental data taken from patent US8685726B2, “Small molecules supporting pluripotent cell growth and methods thereof” (Viacyte, Inc., priority 2009, dated 2014).
“Also recorded” adds a separate entry of the source.

Columns and labels:
Format in all cases: cell-based, human
[1] = tested on: hES cells (e.g., BGO2 cells); experiment: Low-density colony forming / colony counting assay (AP+ colonies); details: 10^4 cells/well, StemPro hESC SFM, 7 days; for support of colony formation at low density: compounds at 10 or 50 μM
Experimental: FIG. 2. Low density plating assay of hES cells (e.g., BGO2 cells). 10000 cells/well were plated in 6-well trays in StemPro® hESC SFM (Life Technologies) medium and stained with alkaline phosphatase (AP+) after 7 days. Y (Y27632), ACh (acetylcholine), NMDA (N-methyl-D-aspartic acid), NE ((−)-Norepinephrine), NE.Bit ((±)-Norepinephrine (+)-bitartrate). Compounds were added at 10 or 50 μM as indicated.
FIG. 3. Low density plating assay of hES cells. (A) 200-10000 cells/well were plated in […] trays in StemPro® hESC SFM medium, or StemPro® hESC SFM +50 μM NE, or +50 μM ACh, and stained with alkaline phosphatase (AP+) after 8 days. […] ACh (acetylcholine), NE ((±)-Norepinephrine (+)-bitartrate). […]
About 10^4 hES cells/well were plated in 6-well trays in StemPro® hESC SFM, in the presence of different compounds and cultured for about 7 days. The cultures were then fixed, stained for alkaline phosphatase activity and colonies were counted (FIG. 2). […] The (±)-Norepinephrine (+)-bitartrate salt was used for all subsequent experiments involving norepinephrine (NE) unless specifically described otherwise.
A similar colony counting experiment was performed using a range of cell densities (FIG. 3). […] See Robins and Schulz 2009, supra. […]

hES cells = experiment: Low-density real-time cell index monitoring (RT-CES impedance reader); details: for survival/proliferation compared to DMSO controls: StemPro hESC SFM HIA, low-density impedance assay; for survival and expansion at low density, single factors and two-factor combinations: 50 μM (NE, ACh, Adenosine, GABA) or 10 μM (Y27632), 5 days
Experimental: FIG. 4. Titration of NE and ACh using the RT-CES impedance reader. 1000 hES cells/well were plated in StemPro® hESC SFM containing the indicated concentrations of small molecules (in μM). In such an assay, the timing of when the cell index rises is associated with the proportion of cells that survive and expand at low density.
FIG. 5. Combined effects of small molecules compound combinations in low cell density assays. (A) 1000 hES cells/well were plated in StemPro® hESC SFM containing small molecules at 50 μM (NE, ACh, Adenosine, GABA) or 10 μM (Y27632). The assay was carried out over 5 days using the RT-CES system.
FIG. 6. […] 1000 hES cells/well were plated in StemPro® hESC SFM containing Heregulin, IGF1 and Activin (HIA) and the indicated small molecules. […] Compounds were tested at 10 μM. The DMSO trace is an average of 8 wells. […] Compounds were tested at the indicated concentrations.
FIG. 7. […] 1000 hES cells/well were plated in StemPro® hESC SFM containing the indicated combinations of growth factors and small molecules. Heregulin (H), LR3-IGF1 (I), Activin (A).
FIG. 9. Low-density RT-CES assays of combinations of growth factors and neurotransmitters. 1000 hES cells/well were plated in StemPro® hESC SFM containing the indicated combinations of growth factors and small molecules. Heregulin (H), LR3-IGF1 (I), Activin (A). Small molecules were tested at 50 μM.
Furthermore, pluripotent cells can also be grown in 96-well culture devices that provide real-time measurements of impedance, which can be used to measure cell proliferation and viability using the RT-CES™ methods from ACEA Biosciences, Inc. (www (dot) aceabio (dot) com). Such an approach would enable a label-free identification and quantification of subtle or immediate effects on differentiable cells, as well as measurements of proliferation, apoptosis and changes to morphology, in real time.
To examine more closely the potency of individual neurotransmitters and determine if synergies exist between different factors, low-density assays were performed in real time using an impedance reader. The ACEA biosciences RT-CES system uses 96-well trays that contain embedded microsensors to monitor changes in electrical impedance, which is translated into a measure of cell index. Any overt alteration within a cell culture can be detected, including but not limited to cell proliferation, migration, cell spreading, apoptosis, differentiation and the like. […] Once an undifferentiated culture becomes confluent the cell index remains high, but tends to go down and up (scallop) between daily feedings. Conversely, differentiation is typically indicated by the appearance of distinctive patterns, such as peaks and troughs in the cell index, likely indicative of an epithelial-to-mesenchymal transition, flattening, cell migration, apoptosis or similar differentiation and growth related changes.
Human ES cells were plated at low density, 1000 cells/well, in RT-CES trays and cultured for 10 days (FIG. 4). Cells were plated directly in StemPro® hESC SFM containing carrier control (DMSO), NE, or ACh.

CyT49 cells = experiment: Suspension aggregate culture, cell counts and aggregate diameters
Experimental: FIG. 10. Effects of NE and ACh in suspension culture of hES cell. (A) 5×10^6 CyT49 cells were seeded in 5 ml StemPro® hESC SFM containing heregulin, LR3-IGF1, Activin and the indicated neurotransmitters at 50 μM in low-attachment 6-well trays and placed at 100 rpm. Undifferentiated suspension aggregates were imaged on day 4. (B) 24 hours after seeding, two wells from each condition were harvested and counted to determine the number of viable cells. (C) Cell counts of each condition when the cultures were split on day 4. (D) The images in (A) were used to determine aggregate diameters using the ImagePro software measurement tool. Average diameters and standard deviations from 50-100 aggregates from each condition are shown. (E) Passage 1 cell counting data. 5×10^6 CyT49 hES cells from p0 cells in (A) were seeded into the same conditions. The aggregates in the condition containing Y27632 were larger and had to be passaged 3 days after seeding, before the centers of the largest aggregates became necrotic. Conversely, the other conditions could be cultured for 6 days before passaging, resulting in higher cell counts.
FIG. 11. Suspension hES cell cultured with NE, […] remain undifferentiated. CyT49 cells were grown as suspension aggregates in the presence of NE, […] for 16 passages without differentiating morphologically. After p10, some cells were re-plated to adherent culture and examined by karyotyping and immunofluorescent staining for OCT4 and Tra-1-61. All cultures remained undifferentiated and expressed these pluripotency markers uniformly. (SP) StemPro® SFM HIA, NE (+NE at 50 μM), ACh (+ACh at 50 μM), NE/ACh (+NE/ACh at 50 μM). Karyotype data is shown to the right. […] Cultures containing ACh were aneuploid.
Small molecule ligands that support survival or self-renewal at low cell densities could also be expected to have beneficial effects in other culture formats. Applicants have previously developed a suspension culture system for hES cells that enables serial propagation of cells and effective expansion of cultures. Human ES cells, at least BG02 and CyT49 cells, have been maintained in suspension for greater than 10 passages without differentiation. The basis of the technique is to dissociate cultures to single cells with reagents that preserve high viability, such as Accutase™, TrypLE or cell dispersal buffer, then aggregate defined concentrations of cells in defined medium in rotational culture. These methods are described in more detail in International Application PCT/US2008/082356, entitled STEM CELL AGGREGATE SUSPENSION COMPOSITIONS AND METHODS OF DIFFERENTIATION THEREOF, filed Nov. 4, 2008; and International Application PCT/US2007/062755, entitled COMPOSITIONS AND METHODS FOR CULTURING DI[…], filed Feb. 23, 2007, which are herein incorporated by reference in their entireties. Self-aggregation of hES cells occurs in the absence of added extracellular matrix (ECM) or ECM-like proteins and is presumed to be driven in part by homotypic interaction of E-cadherin. The aggregates that are formed expand over 3-4 days and are kept apart from each other by the shear forces generated by rotational culture. Cells are blocked from differentiating by the self-renewal signaling provided by the defined medium and retain their pluripotent characteristics: marker expression, normal karyotype, and differentiation potential in vitro and in teratomas. […]

CN[C@H](CC(=O)O)C(=O)O [NMDA, N-methyl-D-aspartic acid]
support of colony formation at low density [1]: failed to support enhanced colony formation | survival/proliferation compared to DMSO controls (hES cells; 1000 cells/well): lack of robust activity

C[C@@H](N)[C@H]1CC[C@H](C(=O)Nc2ccncc2)CC1 [Y27632]
cells generated at passage 1 (CyT49 cells; passaged after 3 days): about 1.2×10^7 cells | aggregate size on day 4 (CyT49 cells; suspension, StemPro hESC SFM HIA, neurotransmitters 50 μM): fewer numbers of larger aggregates | AP+ colonies counted ([1]; 6-well trays): 0 colonies | support of colony formation at low density [1]: did not support colony survival/expansion | survival and expansion at low density, single factors and two-factor combinations (hES cells; 1000 cells/well): did not survive or proliferate; also recorded: reduced the effects of NE, ACh, Adenosine and GABA

Nc1ncnc2c1ncn2[C@@H]1O[C@H](CO)[C@@H](O)[C@H]1O [adenosine]
support of colony formation at low density [1]: supported elevated colony formation | survival and expansion at low density, single factors and two-factor combinations (hES cells; 1000 cells/well): less effective | time after plating at which cell index rises above background / expansion detectable (hES cells; 50 μM each factor, 1000 cells/well, StemPro hESC SFM): ~4.5 days

NCCc1c[nH]cn1 [histamine]
support of colony formation at low density [1]: failed to support enhanced colony formation | survival/proliferation compared to DMSO controls (hES cells; 1000 cells/well): lack of robust activity

CN1CCCC1c1cccnc1 (stereo not shown) [nicotine]
support of colony formation at low density [1]: failed to support enhanced colony formation

(−)-Norepinephrine
support of colony formation at low density [1]: supported elevated colony formation

heregulin
low cell density survival with a single growth factor (hES cells; 1000 cells/well, StemPro hESC SFM): did not support low cell density survival

B1: Activin: recombinant Activin A growth factor of the defined medium (protein, UniProt P08476 311-426, looked up)
Inhibin beta A chain: GLECDGKVNICCKKQFFVSFKDIGWNDWIIAPSGYHANYCEGECPSHIAGTSGSSLSFHSTVINHYRMRGHSPFANLKSCCVPTKLRPMSMLYYDDGQNIIKKDIQNMIVEECGCS
modifications: Inhibin beta A chain
role in plating, survival and/or expansion at low cell density (hES cells; low cell density): major negative role
